Columns and labels:
Test in all cases: Bliss excess, mean over the matrix (fraction); higher = more synergy
42-MG-BA (Glioblastoma) = system: 42-MG-BA (Glioblastoma)
In short: (§1)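 After 24 hours at 37°C and 5% CO2 in 1536-well plates, cells in DMEM/F12 or RPMI plus 10% FBS received two-drug dose matrices for 72 hours. Viability came from CellTiter-Glo 2.0 luminescence and was scaled as inhibition, anchored at 0 by vehicle wells and at 1 by blank wells. Combination Emax is taken as the second-highest inhibition in the matrix, and Bliss excess as the observed combination effect less EA + EB − EA·EB, with EA and EB the single-agent effects.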

[1] = system: B-CPAP (Thyroid Gland Carcinoma)
In short: as §1

[2] = system: CAL-148 (Breast Carcinoma)
In short: as §1

[3] = system: Calu-3 (Lung Adenocarcinoma)
In short: as §1

[4] = system: DEL (T-Cell Non-Hodgkin's Lymphoma)
In short: as §1

[5] = system: DoTc2-4510 (Cervical Carcinoma)
In short: as §1

ES4 (Ewing's Sarcoma) = system: ES4 (Ewing's Sarcoma)
In short: as §1

[6] = system: HCC1806 (Breast Carcinoma)
In short: as §1

[7] = system: HO-1-N-1 (Oral Cavity Carcinoma)
In short: as §1

[8] = system: Hs-578-T (Breast Carcinoma)
In short: as §1

[9] = system: KURAMOCHI (Ovarian Carcinoma)
In short: as §1

[10] = system: KYSE-520 (Esophageal Squamous Cell Carcinoma)
In short: as §1

[11] = system: LNCaP-Clone-FGC (Prostate Carcinoma)
In short: as §1

[12] = system: LS-180 (Colorectal Carcinoma)
In short: as §1

[13] = system: ME-1 (Acute Myeloid Leukemia)
In short: as §1

[14] = system: NCI-H82 (Small Cell Lung Carcinoma)
In short: as §1

[15] = system: RO82-W-1 (Thyroid Gland Carcinoma)
In short: as §1

[16] = system: Ramos-2G6-4C10 (Burkitt's Lymphoma)
In short: as §1

[17] = system: TCCSUP (Bladder Carcinoma)
In short: as §1

[18] = system: UM-UC-3 (Bladder Carcinoma)
In short: as §1

SMILES: CC1(C)CCC(CN2CCN(c3ccc(C(=O)NS(=O)(=O)c4ccc(NCC5CCOCC5)c([N+](=O)[O-])c4)c(Oc4cnc5[nH]ccc5c4)c3)CC2)=C(c2ccc(Cl)cc2)C1 [Venetoclax] + CN(C)CCCOc1ccc(-c2ccc3ncc4c(c3c2)n(C2CCOCC2)c(=O)n4C)cn1 [AZD0156] (first compound max 1 µM, 7x7, partner max 1 µM)
- Bliss excess (42-MG-BA (Glioblastoma)): 0.0057
- Bliss excess [1]: 0.0113
- Bliss excess [2]: -0.0006
- Bliss excess [3]: -0.0113
- Bliss excess [4]: 0.0011
- Bliss excess [5]: -0.0148
- Bliss excess (ES4 (Ewing's Sarcoma)): -0.0226
- Bliss excess [6]: 0.0097
- Bliss excess [7]: 0.0445
- Bliss excess [8]: -0.0426
- Bliss excess [9]: -0.0039
- Bliss excess [10]: -0.0218
- Bliss excess [11]: -0.0503
- Bliss excess [12]: -0.0099
- Bliss excess [13]: -0.0045
- Bliss excess [14]: 0.0295
- Bliss excess [15]: -0.0586
- Bliss excess [16]: 0.0676
- Bliss excess [17]: -0.036
- Bliss excess [18]: 0.0045

SMILES: CC1(C)CCC(CN2CCN(c3ccc(C(=O)NS(=O)(=O)c4ccc(NCC5CCOCC5)c([N+](=O)[O-])c4)c(Oc4cnc5[nH]ccc5c4)c3)CC2)=C(c2ccc(Cl)cc2)C1 [Venetoclax] + COc1cc(Nc2ncc3c(n2)-c2ccc(Cl)cc2C(c2c(F)cccc2OC)=NC3)ccc1C(=O)O [Alisertib] (first compound max 1 µM, 7x7, partner max 10 µM)
- Bliss excess (42-MG-BA (Glioblastoma)): 0.0468
- Bliss excess [1]: -0.0128
- Bliss excess [2]: -0.0175
- Bliss excess [3]: -0.0228
- Bliss excess [4]: 0.0094
- Bliss excess [5]: -0.0367
- Bliss excess (ES4 (Ewing's Sarcoma)): -0.0349
- Bliss excess [6]: 0.0042
- Bliss excess [7]: -0.0846
- Bliss excess [8]: 0.107
- Bliss excess [9]: -0.0992
- Bliss excess [10]: -0.0489
- Bliss excess [11]: 0.0008
- Bliss excess [12]: -0.008
- Bliss excess [13]: 0.0669
- Bliss excess [14]: 0.0328
- Bliss excess [15]: -0.0658
- Bliss excess [16]: 0.0209
- Bliss excess [17]: -0.0341
- Bliss excess [18]: 0.0184

SMILES: CC1(C)CCC(CN2CCN(c3ccc(C(=O)NS(=O)(=O)c4ccc(NCC5CCOCC5)c([N+](=O)[O-])c4)c(Oc4cnc5[nH]ccc5c4)c3)CC2)=C(c2ccc(Cl)cc2)C1 [Venetoclax] + C[C@@H]1COCCN1C2=NC(=NC(=C2)C3(CC3)[S@](=N)(=O)C)C4=C5C=CNC5=NC=C4 [AZD6738] (first compound max 1 µM, 7x7, partner max 10 µM)
- Bliss excess (42-MG-BA (Glioblastoma)): -0.0057
- Bliss excess [1]: -0.0136
- Bliss excess [2]: -0.0501
- Bliss excess [3]: -0.0023
- Bliss excess [4]: 0.01
- Bliss excess [5]: -0.0174
- Bliss excess (ES4 (Ewing's Sarcoma)): -0.0465
- Bliss excess [6]: -0.0665
- Bliss excess [7]: -0.0248
- Bliss excess [8]: -0.122
- Bliss excess [9]: -0.0451
- Bliss excess [10]: -0.0353
- Bliss excess [11]: -0.0645
- Bliss excess [12]: -0.0174
- Bliss excess [13]: 0.0345
- Bliss excess [14]: 0.0098
- Bliss excess [15]: -0.0504
- Bliss excess [16]: -0.0389
- Bliss excess [17]: -0.1
- Bliss excess [18]: -0.0296

SMILES: CC1(C)CCC(CN2CCN(c3ccc(C(=O)NS(=O)(=O)c4ccc(NCC5CCOCC5)c([N+](=O)[O-])c4)c(Oc4cnc5[nH]ccc5c4)c3)CC2)=C(c2ccc(Cl)cc2)C1 [Venetoclax] + C[C@@H](Nc1cc(F)cc(F)c1)c1cc(C(=O)N(C)C)cc2c(=O)cc(N3CCOCC3)oc12 [AZD8186] (first compound max 1 µM, 7x7, partner max 3 µM)
- Bliss excess (42-MG-BA (Glioblastoma)): -0.0591
- Bliss excess [1]: -0.0151
- Bliss excess [2]: 0.0101
- Bliss excess [3]: -0.0189
- Bliss excess [4]: 0.0055
- Bliss excess [5]: -0.0078
- Bliss excess (ES4 (Ewing's Sarcoma)): -0.0554
- Bliss excess [6]: -0.0149
- Bliss excess [7]: -0.009
- Bliss excess [8]: -0.0314
- Bliss excess [9]: -0.0467
- Bliss excess [10]: -0.06
- Bliss excess [11]: -0.0066
- Bliss excess [12]: -0.0286
- Bliss excess [13]: 0.0239
- Bliss excess [14]: -0.0452
- Bliss excess [15]: -0.0455
- Bliss excess [16]: 0.0107
- Bliss excess [17]: -0.0442
- Bliss excess [18]: -0.0164

SMILES: CC1(C)CCC(CN2CCN(c3ccc(C(=O)NS(=O)(=O)c4ccc(NCC5CCOCC5)c([N+](=O)[O-])c4)c(Oc4cnc5[nH]ccc5c4)c3)CC2)=C(c2ccc(Cl)cc2)C1 [Venetoclax] + Cc1cc2ncnn2cc1Nc1ncc2c(n1)n(C1CCOCC1)c(=O)n2C [AZD7648] (first compound max 1 µM, 7x7, partner max 10 µM)
- Bliss excess (42-MG-BA (Glioblastoma)): -0.0013
- Bliss excess [1]: -0.0146
- Bliss excess [2]: -0.0143
- Bliss excess [3]: 0.0113
- Bliss excess [4]: 0.0365
- Bliss excess [5]: -0.0413
- Bliss excess (ES4 (Ewing's Sarcoma)): -0.0452
- Bliss excess [6]: 0.0043
- Bliss excess [7]: 0.0318
- Bliss excess [8]: -0.0162
- Bliss excess [9]: -0.0605
- Bliss excess [10]: -0.0284
- Bliss excess [11]: -0.0963
- Bliss excess [12]: -0.0061
- Bliss excess [13]: 0.0319
- Bliss excess [14]: -0.0227
- Bliss excess [15]: -0.0346
- Bliss excess [16]: 0.0435
- Bliss excess [17]: -0.0444
- Bliss excess [18]: -0.0325

SMILES: CC1(C)CCC(CN2CCN(c3ccc(C(=O)NS(=O)(=O)c4ccc(NCC5CCOCC5)c([N+](=O)[O-])c4)c(Oc4cnc5[nH]ccc5c4)c3)CC2)=C(c2ccc(Cl)cc2)C1 [Venetoclax] + Cn1cnc2c(F)c(Nc3ccc(Br)cc3Cl)c(C(=O)NOCCO)cc21 [Selumetinib] (first compound max 1 µM, 7x7, partner max 3 µM)
- Bliss excess (42-MG-BA (Glioblastoma)): -0.0279
- Bliss excess [1]: -0.0446
- Bliss excess [2]: -0.0148
- Bliss excess [3]: -0.0214
- Bliss excess [4]: 0.0117
- Bliss excess [5]: -0.0414
- Bliss excess (ES4 (Ewing's Sarcoma)): -0.0412
- Bliss excess [6]: -0.025
- Bliss excess [7]: -0.0037
- Bliss excess [8]: 0.0045
- Bliss excess [9]: -0.0333
- Bliss excess [10]: -0.0836
- Bliss excess [11]: -0.0459
- Bliss excess [12]: 0.0538
- Bliss excess [13]: 0.055
- Bliss excess [14]: -0.0125
- Bliss excess [15]: -0.0552
- Bliss excess [16]: -0.0144
- Bliss excess [17]: -0.0444
- Bliss excess [18]: -0.0445

Reference: the supplement of paper PMC11061612
